Test results as given in patent US7371749B2, “Benzothiazole derivatives” (Hoffmann-La Roche Inc., priority 2004, dated 2008).

What was measured:
[1] = molecular target: T1, human adenosine A2A receptor (Homo sapiens, UniProt P29274); test: [3H]-SCH-58261 binding assay on human adenosine A2A receptor expressed in CHO cell membranes (SPA); settings: displacement of [3H]-SCH-58261 (1 nM); recombinant receptor in CHO membranes; Ki by Cheng-Prussoff equation; read-out: hA2 (pKi) (converted)
T1 construct: expressed in transfected cells; host or cells: CHO cells, semliki forest virus expression system; membrane preparation
T1 sequence (P29274 whole entry): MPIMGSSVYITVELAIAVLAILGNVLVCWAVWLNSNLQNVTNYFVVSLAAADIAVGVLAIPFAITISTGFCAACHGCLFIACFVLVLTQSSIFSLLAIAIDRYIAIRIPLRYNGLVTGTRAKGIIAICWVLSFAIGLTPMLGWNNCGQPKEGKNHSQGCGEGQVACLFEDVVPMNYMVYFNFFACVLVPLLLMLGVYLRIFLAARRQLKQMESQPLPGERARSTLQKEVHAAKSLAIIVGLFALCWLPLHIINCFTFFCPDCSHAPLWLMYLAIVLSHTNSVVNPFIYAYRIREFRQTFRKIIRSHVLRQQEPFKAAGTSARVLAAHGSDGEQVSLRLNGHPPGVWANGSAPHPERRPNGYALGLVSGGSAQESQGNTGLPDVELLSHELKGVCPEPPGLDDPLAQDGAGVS
Experimental: Human Adenosine A2A Receptor
The human adenosine A2A receptor was recombinantly expressed in Chinese hamster ovary (CHO) cells using the semliki forest virus expression system. Cells were harvested, washed twice by centrifugation, homogenized and again washed by centrifugation. The final washed membrane pellet was suspended in a Tris (50 mM) buffer containing 120 mM NaCl, 5 mM KCl, 2 mM CaCl2 and 10 mM MgCl2 (pH 7.4) (buffer A). The [^3H]-SCH-58261 (Dionisotti et al., 1997, Br J Pharmacol 121, 353; 1 nM) binding assay was carried out in 96-well plates in the presence of 2.5 μg of membrane protein, 0.5 mg of Ysi-poly-1-lysine SPA beads and 0.1 U adenosine deaminase in a final volume of 200 μl of buffer A. Non-specific binding was defined using xanthine amine congener (XAC; 2 μM). Compounds were tested at 10 concentrations from 10 μM-0.3 nM. All assays were conducted in duplicate and repeated at least two times. Assay plates were incubated for 1 hour at room temperature before centrifugation and then bound ligand determined using a Packard Topcount scintillation counter. IC50 values were calculated using a non-linear curve fitting program and Ki values calculated using the Cheng-Prussoff equation.

melting point [°C] | Ki [1] [pM] | SMILES
176 to 178 | 501 | COCCN(C)Cc1ncc(C(=O)Nc2nc3c(OC)ccc(N4CCOCC4)c3s2)n1C [Example 1, 2-{[(2-Methoxy-ethyl)-methyl-amino]-methyl}-3-methyl-3H-imidazole-4-carboxylic acid (4-methoxy-7-morpholin-4-yl-benzothiazol-2-yl)-amide]
229 to 231 | 631 | COc1ccc(N2CCOCC2)c2sc(NC(=O)c3cnc(CN(C)C)n3C)nc12 [Example 2, 2-Dimethylaminomethyl-3-methyl-3H-imidazole-4-carboxylic acid (4-methoxy-7-morpholin-4-yl-benzothiazol-2-yl)-amide]
244 to 246 | 631 | COc1ccc(N2CCOCC2)c2sc(NC(=O)c3cnc(CN4CCOCC4)n3C)nc12 [Example 3, 3-Methyl-2-morpholin-4-ylmethyl-3H-imidazole-4-carboxylic acid (4-methoxy-7-morpholin-4-yl-benzothiazol-2-yl)-amide]
255 | 1580 | COc1ccc(N2CCOCC2)c2sc(NC(=O)c3cnc(CN4CCCC4)n3C)nc12 [Example 4, 3-Methyl-2-pyrrolidin-1-ylmethyl-3H-imidazole-4-carboxylic acid (4-methoxy-7-morpholin-4-yl-benzothiazol-2-yl)-amide]
190 to 192 | 794 | COc1ccc(N2CCOCC2)c2sc(NC(=O)c3cnn(CCN4CCCC4)c3)nc12 [Example 5, 1-(2-Pyrrolidin-1-yl-ethyl)-1H-pyrazole-4-carboxylic acid (4-methoxy-7-morpholin-4-yl-benzothiazol-2-yl)-amide]
203 to 205 | 794 | COc1ccc(N2CCOCC2)c2sc(NC(=O)c3cnn(CCN(C)C)c3)nc12 [Example 6, 1-(2-Dimethylamino-ethyl)-1H-pyrazole-4-carboxylic acid (4-methoxy-7-morpholin-4-yl-benzothiazol-2-yl)-amide]
204 to 207 | 1000 | COc1ccc(N2CCOCC2)c2sc(NC(=O)c3cnn(CCN4CCOCC4)c3)nc12 [Example 7, 1-(2-Morpholin-4-yl-ethyl)-1H-pyrazole-4-carboxylic acid (4-methoxy-7-morpholin-4-yl-benzothiazol-2-yl)-amide]
– | 398 | COCCn1cc(C(=O)Nc2nc3c(OC)ccc(N4CCOCC4)c3s2)cn1 [Example 8, 1-(2-Methoxy-ethyl)-1H-pyrazole-4-carboxylic acid (4-methoxy-7-morpholin-4-yl-benzothiazol-2-yl)-amide]
242 to 245 | 501 | COCc1ncc(C(=O)Nc2nc3c(OC)ccc(N4CCOCC4)c3s2)n1C [Example 9, 2-Methoxymethyl-3-methyl-3H-imidazole-4-carboxylic acid (4-methoxy-7-morpholin-4-yl-benzothiazol-2-yl)-amide]
